System: HBV εRNA
Assay: εRNA/oligonucleotide hybridization inhibition assay with rRNA competitor
Assay type: binding, Hepatitis B virus
Conditions: for Specificity: ratio RRE+rRNA IC50/εRNA+rRNA IC50, max = inactive in RRE assay
Outline: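 Inhibition of hybridization between 25 nM [32P]-εRNA and 100 nM biotinylated complementary oligonucleotide (50 mM Tris-HCl pH 7.5, 200 mM KCl, 5 mM MgCl2, 60 min, 25 °C), hybrids captured by streptavidin filter and counted. Titrations 0.1-200 μM with 60-fold excess rRNA; specificity = RRE+rRNA IC50/εRNA+rRNA IC50.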

[1] = radiolabeled εRNA, 60-fold excess rRNA competitor

Structure (SMILES)	IC50 [1] [µM]	Specificity	HBV + rRNA IC50 (μM) [1]
CCCCN(CCCC)c1nc(NN=Cc2ccc([N+](=O)[O-])cc2)nc(Nc2ccc([N+](=O)[O-])cc2)n1 [Compound 5]	49.3	max.	–
Cc1[nH]c2ccccc2c1C=NNc1nc(Nc2ccccc2)nc(Nc2ccc([N+](=O)[O-])cc2)n1 [Compound 6]	10.4	max.	–
Cc1ccc(Nc2nc(NN=Cc3ccccc3)nc(Nc3ccccc3)n2)c(C)c1 [Compound 7]	2.4	max.	–
CCCCN(CCCC)c1nc(N/N=C/c2cc(I)cc(I)c2O)nc(Nc2ccc([N+](=O)[O-])cc2)n1 [Compound 8]	4	max.	–
Cc1ccc(Nc2nc(NN=Cc3ccc(O)cc3O)nc(Nc3ccc([N+](=O)[O-])cc3)n2)cc1C [Compound 9]	6.2	132.6	–
Cc1ccccc1Nc1nc(NN=Cc2ccc(I)cc2)nc(Nc2ccc([N+](=O)[O-])cc2)n1 [Compound 10]	12	max.	–
CCCCN(CCCC)c1nc(NN=Cc2ccc3c(c2)OCO3)nc(Nc2ccc([N+](=O)[O-])cc2)n1 [Compound 11]	15	max.	–
Cc1ccc(Nc2nc(NN=Cc3ccccc3O)nc(Nc3ccc([N+](=O)[O-])cc3)n2)cc1C [Compound 12]	2.6	max.	–
CCN(CC)c1nc(NN=Cc2ccc([N+](=O)[O-])cc2)nc(Nc2ccccc2)n1 [Compound 13]	4.9	max.	–
COc1c(Br)cc(Br)cc1C=NNc1nc(Nc2ccccc2)nc(N2CCCCC2)n1 [Compound 14]	7.1	max.	–
Cc1ccc(C=NNc2nc(Nc3ccc([N+](=O)[O-])cc3)nc(Nc3ccccc3C)n2)cc1 [Compound 15]	11	max.	–
CCCCN(CCCC)c1nc(NN=Cc2ccc(Cl)cc2)nc(Nc2ccc([N+](=O)[O-])cc2)n1 [Compound 16]	12.1	max.	–
CC(C=NNc1nc(Nc2ccc([N+](=O)[O-])cc2)nc(Nc2ccc(C)c(C)c2)n1)=Cc1ccccc1 [Compound 19]	9.9	max.	–
COc1ccc(Nc2nc(NN=Cc3ccc(OC)cc3OC)nc(Nc3ccccc3)n2)cc1 [Compound 20]	11.7	max.	–
FC(F)(F)c1cccc(Nc2nc(Nc3ccccc3)nc(N3CCOCC3)n2)c1 [Compound 21]	14.4	max.	–
COc1ccc(Nc2nc(NN=Cc3ccc(Cl)cc3)nc(Nc3ccccc3)n2)cc1 [Compound 22]	3.6	max.	–
CCCCN(CCCC)c1nc(NN=Cc2ccc(OCC)c(O)c2)nc(Nc2ccc([N+](=O)[O-])cc2)n1 [Compound 23]	5.7	max.	–
O=[N+]([O-])c1ccc(Nc2nc(NCc3ccccc3)nc(NN=Cc3ccccc3)n2)cc1 [Compound 24]	10	max.	–
Cc1ccc(Nc2nc(NN=Cc3ccccc3)nc(Nc3ccccc3)n2)cc1 [Compound 25]	11.9	max.	–
CCN(CC)CCNc1ccc2c3c(cccc13)C(=O)N(Nc1nc(NCc3ccccc3)nc(N(CC)CC)n1)C2=O [Compound 27]	15.5	max.	–
COc1ccc(Br)cc1/C=N/Nc1nc(Nc2cccc([N+](=O)[O-])c2)nc(N2CCOCC2)n1 [Compound 28]	18.9	max.	–

Structure (SMILES)	IC50 [1] [µM]	Specificity	HBV + rRNA IC50 (μM) [1]
Cc1ccccc1Nc1nc(NN=Cc2ccc3c(c2)OCO3)nc(Nc2ccc([N+](=O)[O-])cc2)n1 [Compound 29]	24.8	max.	–
Cc1ccc(Nc2nc(NN=Cc3cccc(I)c3)nc(Nc3ccccc3)n2)cc1 [Compound 30]	25	max.	–
Oc1ccc(I)cc1C=NNc1nc(NCc2ccccc2)nc(Nc2ccccc2)n1 [Compound 33]	37.2	max.	–
Oc1c(Br)cc(Cl)cc1/C=N/Nc1nc(Nc2cccc(C(F)(F)F)c2)nc(N2CCOCC2)n1 [Compound 34]	21	max.	–
CCCCN(CCCC)c1nc(NN=Cc2cccc(Cl)c2)nc(Nc2ccc([N+](=O)[O-])cc2)n1 [Compound 35]	24.9	max.	–
Cc1ccc(Nc2nc(NN=Cc3ccc(I)cc3)nc(Nc3ccccc3)n2)c(C)c1 [Compound 113]	33.1	9.1	–
O=[N+]([O-])c1ccc(Nc2nc(NN=Cc3ccc(Br)cc3)nc(N3CCCCCC3)n2)cc1 [Compound 117]	15.6	max.	–
FC(F)(F)c1cccc(Nc2nc(NN=Cc3ccc(Cl)cc3)nc(N3CCOCC3)n2)c1 [Compound 120]	46	24.1	–
C(=Cc1ccccc1)C=NNc1nc(Nc2ccccc2)nc(Nc2ccccc2)n1 [Compound 125]	35.1	28.5	–
CCN(CC)c1nc(NCc2ccccc2)nc(N/N=C/c2ccccc2O)n1 [Compound 155, 2-hydroxybenzaldehyde N-[4-(benzylamino)-6-(diethylamino)-1,3,5-triazin-2-yl]hydrazone]	25.5	max.	–
COc1ccc(Nc2nc(NN=Cc3ccc(O)cc3O)nc(Nc3ccccc3)n2)cc1 [Compound 158]	7.4	max.	–
Cc1ccc(Nc2nc(NN=Cc3cc(I)ccc3O)nc(Nc3ccccc3)n2)c(C)c1 [Compound 159]	2.7	max.	–
Oc1ccc(Cl)cc1C=NNc1nc(Nc2ccc3ccccc3c2)nc(N2CCOCC2)n1 [Compound 160]	9.5	44.2	–
COc1c(C=NNc2nc(NCc3ccccc3)nc(Nc3ccccc3)n2)cccc1[N+](=O)[O-] [Compound 162]	11.7	max.	–
Brc1cccc(C=NNc2nc(Nc3ccccc3)nc(N3CCOCC3)n2)c1 [Compound 163]	99	max.	–
COc1ccc(Nc2nc(NN=Cc3ccc(O)cc3O)nc(N3CCOCC3)n2)cc1 [Compound 164]	48	max.	–
COc1ccc(C=NNc2nc(NCc3ccccc3)nc(Nc3ccccc3)n2)cc1 [Compound 165]	18.8	max.	–
Ic1cccc(C=NNc2nc(Nc3ccc4ccccc4c3)nc(N3CCOCC3)n2)c1 [Compound 166]	36.3	max.	–
Oc1ccc2ccccc2c1C=NNc1nc(Nc2cccc3ccccc23)nc(N2CCOCC2)n1 [Compound 167]	50.9	max.	–
COc1c(C=NNc2nc(Nc3ccccc3)nc(Nc3ccccc3)n2)ccc(Br)c1O [Compound 168]	19.7	max.	–
Oc1ccccc1C=NNc1nc(Nc2ccccc2)nc(N2CCCCC2)n1 [Compound 169]	15.4	max.	–

Structure (SMILES)	IC50 [1] [µM]	Specificity	HBV + rRNA IC50 (μM) [1]
COc1cccc(C=NNc2nc(Nc3ccccc3)nc(N3CCCC3)n2)c1O [Compound 170]	6.2	119.3	–
CCN(CC)c1nc(NN=Cc2c(O)ccc3ccccc23)nc(Nc2ccccc2)n1 [Compound 171]	9.4	max.	–
Cc1cccc(C(=O)Oc2ccc(C=NNc3nc(N4CCCCC4)nc(N4CCCCC4)n3)cc2)c1 [Compound 181]	60	max.	–
CC(=NNc1nc(NCc2ccccc2)nc(Nc2ccccc2)n1)c1ccc([N+](=O)[O-])cc1 [Compound 182]	70.4	max.	–
CC(=NNc1nc(Nc2ccccc2)nc(N2CCCC2)n1)c1ccc([N+](=O)[O-])cc1 [Compound 183]	47.8	max.	–
Cc1ccc(Nc2nc(NCc3ccccc3)nc(NN=Cc3ccc(F)cc3F)n2)cc1C [Compound 191]	87	max.	–
CN(C)c1nc(NCc2ccccc2)nc(NCc2cccs2)n1 [Compound 192]	235	max.	–
COc1c(C=NNc2nc(N3CCCC3)nc(N3CCOCC3)n2)cccc1[N+](=O)[O-] [Compound 193]	28	max.	–
Cc1ccc(Nc2nc(NCc3ccccc3)nc(Nc3ccc([N+](=O)[O-])cc3)n2)cc1C [Compound 194]	34	max.	–
COc1ccccc1C=NNc1nc(NCc2ccccc2)nc(Nc2ccccc2)n1 [Compound 195]	28.2	max.	–
Cc1ccc(Nc2nc(NN=Cc3ccc(Cl)cc3)nc(N3CCOCC3)n2)cc1Cl [Compound 196]	32.7	max.	–
COc1ccc(Nc2nc(NN=Cc3cc(Br)cc(Br)c3O)nc(N3CCOCC3)n2)cc1 [Compound 200]	12.1	max.	–
Fc1cccc(C=NNc2nc(Nc3ccccc3)nc(N3CCCC3)n2)c1 [Compound 201]	53	max.	–
CCN(CC)c1nc(Nc2cccc(Br)c2)nc(Nc2cc(C)ccc2C)n1 [Compound 202]	68	max.	–
O=C(CSc1nc(SCC(=O)Nc2ccccc2C(F)(F)F)nc(SCC(=O)Nc2ccccc2C(F)(F)F)n1)Nc1ccccc1C(F)(F)F [Compound 212]	23.1	max.	–
C(=Cc1ccccc1)C=NNc1nc(Nc2ccccc2)nc(N2CCCC2)n1 [Compound 213]	15.6	33.3	–
CCN(CC)c1nc(NN=Cc2ccc(Cl)c([N+](=O)[O-])c2)nc(Nc2cc(C)ccc2C)n1 [Compound 214]	42.6	max.	–
Clc1ccc(C=NNc2nc(Nc3ccccc3)nc(N3CCCC3)n2)cc1 [Compound 218]	4.8	12.0	–
Cc1ccc(Nc2nc(NCc3ccccc3)nc(NN=Cc3cc(Br)cc(Br)c3O)n2)cc1C [Compound 219]	–	–	inactive
